Measured values from paper PMC4674309 (Molecular cancer therapeutics, 2015).

Biological target: IGF-IR (Homo sapiens, UniProt P08069)
Assay: Western blot of IGF-IR autophosphorylation
Assay type: cell-based

Sequence of IGF-IR (P08069 31-736): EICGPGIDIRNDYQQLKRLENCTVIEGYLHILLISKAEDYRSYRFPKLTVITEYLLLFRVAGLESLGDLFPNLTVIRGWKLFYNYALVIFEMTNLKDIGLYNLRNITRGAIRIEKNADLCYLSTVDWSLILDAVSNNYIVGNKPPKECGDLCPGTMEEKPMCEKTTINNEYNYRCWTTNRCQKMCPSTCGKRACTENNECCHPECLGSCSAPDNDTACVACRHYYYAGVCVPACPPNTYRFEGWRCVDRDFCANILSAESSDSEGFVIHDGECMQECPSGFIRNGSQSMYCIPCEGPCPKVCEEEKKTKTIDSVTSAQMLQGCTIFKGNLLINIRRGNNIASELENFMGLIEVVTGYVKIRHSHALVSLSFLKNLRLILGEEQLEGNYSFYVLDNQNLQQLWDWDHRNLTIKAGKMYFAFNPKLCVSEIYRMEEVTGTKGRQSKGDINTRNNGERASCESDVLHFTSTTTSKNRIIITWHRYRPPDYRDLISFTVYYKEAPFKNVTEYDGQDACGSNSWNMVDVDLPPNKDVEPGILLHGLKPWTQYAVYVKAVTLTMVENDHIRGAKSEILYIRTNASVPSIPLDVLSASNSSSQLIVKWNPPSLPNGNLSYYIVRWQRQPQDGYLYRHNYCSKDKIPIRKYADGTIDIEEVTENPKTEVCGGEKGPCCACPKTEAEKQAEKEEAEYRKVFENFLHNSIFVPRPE
Sequence of IGF-IR (P08069 741-1367): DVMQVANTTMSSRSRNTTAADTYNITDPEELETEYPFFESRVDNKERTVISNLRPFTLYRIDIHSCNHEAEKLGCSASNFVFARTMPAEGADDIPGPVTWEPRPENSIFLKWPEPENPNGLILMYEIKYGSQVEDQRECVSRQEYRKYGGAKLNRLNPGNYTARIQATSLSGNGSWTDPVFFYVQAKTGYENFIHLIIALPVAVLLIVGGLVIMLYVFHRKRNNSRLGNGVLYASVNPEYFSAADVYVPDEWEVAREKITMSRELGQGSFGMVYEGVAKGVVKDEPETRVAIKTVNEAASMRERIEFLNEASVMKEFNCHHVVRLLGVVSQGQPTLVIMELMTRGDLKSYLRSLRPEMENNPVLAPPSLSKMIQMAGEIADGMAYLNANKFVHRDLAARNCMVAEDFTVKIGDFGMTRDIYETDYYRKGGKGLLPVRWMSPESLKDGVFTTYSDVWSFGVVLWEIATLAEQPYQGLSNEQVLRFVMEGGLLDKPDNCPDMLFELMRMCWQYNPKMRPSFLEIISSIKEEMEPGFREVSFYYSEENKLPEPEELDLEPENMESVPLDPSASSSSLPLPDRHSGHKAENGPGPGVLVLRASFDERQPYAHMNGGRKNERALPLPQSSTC

- IC50: < 2 nM
SMILES: Cc1ccsc1C(=O)Nc1cc(CN2CCN(C(=O)CO)CC2)ccc1/C=C/c1n[nH]c2ccccc12 [KW-2450]
